Measurements from patent US10485808B2, “Selective progesterone receptor modulators (SPRM) and stabilized estrogen level in patient” (BAYER PHARMA AKTIENGESELLSCHAFT, priority 2017, dated 2019).

How the values were obtained:
Format in all cases: in vivo, human
[1] = tested on: healthy women of reproductive age; experiment: Study 15818: estradiol (E2) serum concentration after daily oral Compound 1
Protocol: Example 2: Circulating Endogenous Estrogen Concentrations in Healthy Women of Reproductive Age Receiving Compound 1 (Cp1)
Study protocol (N^o 15818): A randomized, double-blind, parallel-group, multi-center study to investigate the pharmacodynamics, pharmacokinetics and safety after daily oral administration of 4 different doses of Compound 1 in healthy women of reproductive age
Doses: 0.5 mg, 1 mg, 2 mg, or 4 mg once daily
Route of administration: Oral
Duration of treatment: 1×12 weeks (84 days)
• Age: 18-40 years • Smoking ≤10 cigarettes/day • Body mass index ≥18 and ≤32 kg/m^2 • Signed informed consent prior to study participation • No contraindication for intake of Compound 1 • Ovulation in pre-treatment cycle • Use of non-hormonal contraception during the study. Number of Subjects: see Table 1 for the number of subjects per Dosage Measurement of primary variable Estradiol: The estradiol (E2) serum concentration was assessed for each subject at the following Visit Days of the study, see FIG. 1 • Pre-treatment Day 9 (D9) corresponds to the period before start of Compound 1 uptake; the pre-treatment cycle starts on the first day of the subject waking up with menstrual bleeding with intensity more than spotting after screening examinations have shown that the subject is eligible for further participation. The pre-treatment period ends by the starting of next menstrual bleeding; • Treatment Day (D84) corresponds to last intake of Compound 1. The treatment phase started with the first and ended with the last intake of the study drug. The subjects have to start the intake of Compound 1 during the first week of the menstrual cycle after the pre-treatment cycle until the last Treatment Day (D84). • The follow-up cycle 1 started on the first day without study drug intake and will end in case of start of menstrual bleeding (i.e. when the subject is waking up with menstrual bleeding with intensity more than spotting). The first day of menstrual bleeding will define the start of follow-up cycle 2. Follow-up cycle 2 ended when the subjects report the next menstrual bleeding (i.e. first day of waking up with menstrual bleeding with intensity more than spotting).
During pre-treatment, end of treatment and at Follow-up Cycle 2, Estradiol (E2) serum concentrations are measured.
Eligible subjects were randomized to one of the treatment groups (0.5 mg, 1 mg, 2 mg, or 4 mg Compound 1). The treatment period consisted of 12 weeks (84 days) of daily tablet intake.

[2] = tested on: women diagnosed with uterine fibroids; experiment: Study 17541/A1: hot flush events during treatment; settings: Cp1 2.0 mg once daily oral, 24 weeks
Excerpt: Example 7: Hot Flush Events in Study Subject Treated with Compound 1 (Cp1)
See full study description in Example 6.
(§1) Hot flush events were reported and monitored during treatment.

[3] = tested on: healthy women of reproductive age; experiment: Study 15818: hot flush events during treatment period; settings: for Hot flush events, Events (%): 12 weeks
Excerpt: Example 3: Hot Flush Event in Study Subject Treated with Compound 1 (Cp1)
See full study description in Example 2.
Hot flush event were reported and monitored during treatment period.

[4] = tested on: women diagnosed with uterine fibroids; experiment: Study 15788: hot flush events during treatment
Excerpt: Example 5: Hot Flush Events in Study Subject Treated with Compound 1 (Cp1)
See full study description in Example 4.
as §1

[5] = Cp1 0.5 mg once daily oral, Follow-up cycle2 D 9
[6] = Cp1 0.5 mg once daily oral, Pre-treatment D 9
[7] = Cp1 0.5 mg once daily oral, Treatment D 84
[8] = Cp1 1 mg once daily oral, Follow-up cycle2 D 9
[9] = Cp1 1 mg once daily oral, Pre-treatment D 9
[10] = Cp1 1 mg once daily oral, Treatment D 84
[11] = Cp1 2 mg once daily oral, Follow-up cycle2 D 9
[12] = Cp1 2 mg once daily oral, Pre-treatment D 9
[13] = Cp1 2 mg once daily oral, Treatment D 84
[14] = Cp1 4 mg once daily oral, Follow-up cycle2 D 9
[15] = Cp1 4 mg once daily oral, Pre-treatment D 9
[16] = Cp1 4 mg once daily oral, Treatment D 84

C[C@]12C[C@H](c3ccc(S(C)(=O)=O)cc3)C3=C4CCC(=O)C=C4CC[C@H]3[C@@H]1CC[C@@]2(O)C(F)(F)C(F)(F)F [Compound 1, (11β,17β)-17-Hydroxy-11-[4-(methylsulphonyl)phenyl]-17-(pentafluoroethyl)estra-4,9-dien-3-one]
Change of estradiol (E2) concentrations during treatment ([1]; 0.5-4 mg once daily, 12 weeks): slight decrease | Estradiol concentrations in serum, Max [1, 5]: 262 pg/mL | Estradiol concentrations in serum, Mean [1, 5]: 116.1 pg/mL | Estradiol concentrations in serum, Median [1, 5]: 79.9 pg/mL | Estradiol concentrations in serum, Min [1, 5]: 17 pg/mL | Estradiol concentrations in serum, Max [1, 6]: 381 pg/mL | Estradiol concentrations in serum, Mean [1, 6]: 138 pg/mL | Estradiol concentrations in serum, Median [1, 6]: 104.5 pg/mL | Estradiol concentrations in serum, Min [1, 6]: 14 pg/mL | Estradiol concentrations in serum, Max [1, 7]: 423 pg/mL | Estradiol concentrations in serum, Mean [1, 7]: 135.6 pg/mL | Estradiol concentrations in serum, Median [1, 7]: about 80 pg/mL | Estradiol concentrations in serum, Min [1, 7]: 23 pg/mL | Estradiol concentrations in serum, Median ([1]; Cp1 0.5 mg once daily oral, Treatment D 84, listed as Cp1): 82 pg/mL | Estradiol concentrations in serum, Max [1, 8]: 305 pg/mL | Estradiol concentrations in serum, Mean [1, 8]: 143.8 pg/mL | Estradiol concentrations in serum, Median [1, 8]: 119.2 pg/mL | Estradiol concentrations in serum, Min [1, 8]: 39 pg/mL | Estradiol concentrations in serum, Max [1, 9]: 311 pg/mL | Estradiol concentrations in serum, Mean [1, 9]: 143.3 pg/mL | Estradiol concentrations in serum, Median [1, 9]: 92.3 pg/mL | Estradiol concentrations in serum, Min [1, 9]: 39 pg/mL | Estradiol concentrations in serum, Max [1, 10]: 276 pg/mL | Estradiol concentrations in serum, Mean [1, 10]: 119.4 pg/mL | Estradiol concentrations in serum, Median [1, 10]: about 80 pg/mL | Estradiol concentrations in serum, Min [1, 10]: 42 pg/mL | Estradiol concentrations in serum, Median ([1]; Cp1 1 mg once daily oral, Treatment D 84, listed as Cp1): 81.5 pg/mL | Estradiol concentrations in serum, Max [1, 11]: 395 pg/mL | Estradiol concentrations in serum, Mean [1, 11]: 123.9 pg/mL | Estradiol concentrations in serum, Median [1, 11]: 80.9 pg/mL | Estradiol concentrations in serum, Min [1, 11]: 33 pg/mL | Estradiol concentrations in serum, Max [1, 12]: 308 pg/mL | Estradiol concentrations in serum, Mean [1, 12]: 113.5 pg/mL | Estradiol concentrations in serum, Median [1, 12]: 82.2 pg/mL | Estradiol concentrations in serum, Min [1, 12]: 33 pg/mL | Estradiol concentrations in serum, Max [1, 13]: 330 pg/mL | Estradiol concentrations in serum, Mean [1, 13]: 91.2 pg/mL | Estradiol concentrations in serum, Median [1, 13]: about 80 pg/mL | Estradiol concentrations in serum, Min [1, 13]: 34 pg/mL | Estradiol concentrations in serum, Median ([1]; Cp1 2 mg once daily oral, Treatment D 84, listed as Cp1): 78.5 pg/mL | Estradiol concentrations in serum, Max [1, 14]: 279 pg/mL | Estradiol concentrations in serum, Mean [1, 14]: 109.9 pg/mL | Estradiol concentrations in serum, Median [1, 14]: 88.7 pg/mL | Estradiol concentrations in serum, Min [1, 14]: 41 pg/mL | Estradiol concentrations in serum, Max [1, 15]: 200 pg/mL | Estradiol concentrations in serum, Mean [1, 15]: 126.4 pg/mL | Estradiol concentrations in serum, Median [1, 15]: 122.9 pg/mL | Estradiol concentrations in serum, Min [1, 15]: 44 pg/mL | Estradiol concentrations in serum, Max [1, 16]: 81 pg/mL | Estradiol concentrations in serum, Mean [1, 16]: 53.9 pg/mL | Estradiol concentrations in serum, Median [1, 16]: about 50 pg/mL | Estradiol concentrations in serum, Min [1, 16]: 39 pg/mL | Estradiol concentrations in serum, Median ([1]; Cp1 4 mg once daily oral, Treatment D 84, listed as Cp1): 50.5 pg/mL | Reversibility of estradiol (E2) decrease after end of treatment ([1]; pre-treatment vs follow-up Cycle 2): completely reversible | Hot flush events, Events (%) [2]: no more than 11.4% | Hot flush events, Events (%) ([2]; listed as Cp1): 11.4% | Hot flush events, Events (%) ([3]; Cp1 0.5 mg once daily oral): 5.6% | Hot flush events, Events (%) ([3]; Cp1 1.0 mg once daily oral): 11.1% | Hot flush events, Events (%) ([3]; Cp1 2.0 mg once daily oral): 17.6% | Hot flush events, Events (%) ([3]; Cp1 4.0 mg once daily oral): 29.4% | Severe hot flushes ([3]; all dose groups 0.5-4 mg): No severe hot flushes were reported | Subjects reporting hot flush, total study subjects ([3]; all dose groups 0.5-4 mg): 11 | Hot flush events, MILD, number of subjects ([4]; Cp1 0.5 mg, N = 60, 12 weeks): 5 | Hot flush events, MILD, percent of subjects ([4]; Cp1 0.5 mg, N = 60, 12 weeks): 8.3% | Hot flush events, MODERATE, number of subjects ([4]; Cp1 0.5 mg, N = 60, 12 weeks): 0 | Hot flush events, SEVERE, number of subjects ([4]; Cp1 0.5 mg, N = 60, 12 weeks): single | Hot flush events, SEVERE, percent of subjects ([4]; Cp1 0.5 mg, N = 60, 12 weeks): 1.7% | Hot flush events, Total, number of subjects ([4]; Cp1 0.5 mg, N = 60, 12 weeks): 6 | Hot flush events, Total, percent of subjects ([4]; Cp1 0.5 mg, N = 60, 12 weeks): 0.0% | Hot flush events, SEVERE, number of subjects ([4]; Cp1 0.5 mg, N = 60, 12 weeks, listed as Cp1): 1 | Hot flush events, MILD, number of subjects ([4]; Cp1 1 mg, N = 61, 12 weeks): 3 | Hot flush events, MILD, percent of subjects ([4]; Cp1 1 mg, N = 61, 12 weeks): 4.9% | Hot flush events, MODERATE, number of subjects ([4]; Cp1 1 mg, N = 61, 12 weeks): 2 | Hot flush events, MODERATE, percent of subjects ([4]; Cp1 1 mg, N = 61, 12 weeks): 3.3% | Hot flush events, SEVERE, number of subjects ([4]; Cp1 1 mg, N = 61, 12 weeks): 0 | Hot flush events, Total, number of subjects ([4]; Cp1 1 mg, N = 61, 12 weeks): 5 | Hot flush events, Total, percent of subjects ([4]; Cp1 1 mg, N = 61, 12 weeks): 8.2% | Hot flush events, MILD, number of subjects ([4]; Cp1 2 mg, N = 61, 12 weeks): 4 | Hot flush events, MILD, percent of subjects ([4]; Cp1 2 mg, N = 61, 12 weeks): 6.6% | Hot flush events, MODERATE, number of subjects ([4]; Cp1 2 mg, N = 61, 12 weeks): 1 | Hot flush events, MODERATE, percent of subjects ([4]; Cp1 2 mg, N = 61, 12 weeks): 1.6% | Hot flush events, SEVERE, number of subjects ([4]; Cp1 2 mg, N = 61, 12 weeks): 0 | Hot flush events, Total, number of subjects ([4]; Cp1 2 mg, N = 61, 12 weeks): 5 | Hot flush events, Total, percent of subjects ([4]; Cp1 2 mg, N = 61, 12 weeks): 8.2% | Hot flush events, MILD, number of subjects ([4]; Cp1 4 mg, N = 60, 12 weeks): 5 | Hot flush events, MILD, percent of subjects ([4]; Cp1 4 mg, N = 60, 12 weeks): 8.3% | Hot flush events, MODERATE, number of subjects ([4]; Cp1 4 mg, N = 60, 12 weeks): 3 | Hot flush events, MODERATE, percent of subjects ([4]; Cp1 4 mg, N = 60, 12 weeks): 5.0% | Hot flush events, SEVERE, number of subjects ([4]; Cp1 4 mg, N = 60, 12 weeks): 0 | Hot flush events, Total, number of subjects ([4]; Cp1 4 mg, N = 60, 12 weeks): 8 | Hot flush events, Total, percent of subjects ([4]; Cp1 4 mg, N = 60, 12 weeks): 13.3% | Subjects showing mild to moderate hot flushes, overall ([4]; all dose groups, 12 weeks): no more than 14%
